Where two headings read alike, the source gives them in different places.
Key:
[1] = VBL PK study in wild‐type and Mdr1a/b(−/−) mice, observed serum and tissue data; settings: female, mouse, iv, 2 mg/kg; for half-life: in vivo, 2 mg/kg IV, Obs
Protocol: Mouse protocols were approved by the Institutional Animal Care and Use Committee at Colorado State University. Two strains of mice were used: FVB female mice and Mdr1a/b (−/−) (knock‐out, KO) female mice in a FVB background (Taconic Biosciences, Inc) for a total of 15 mice per strain with three mice per time point. […] Whole blood and tissues were harvested throughout a time range of 0.08 to 6 h. Whole blood was collected with heparinized needles and transferred to a microcentrifuge tube and was spun at 1200xg for 10 min at 4°C. The resulting serum and tissues were flash‐frozen in liquid nitrogen and stored at −80°C until ready for analysis.
Serum samples (200μl) were spiked with 50 ng (10 μl of 5 μg/ml solution) of vincristine as an internal standard. […] During vortex mixing, solid‐phase extraction cartridges were prepared by the addition of 400 μl methanol followed by 400 μl milli‐Q water. Loaded samples were then washed twice with 5% methanol. […] Samples were then evaporated to dryness using a Savant AES 1000 SpeedVac. Samples were then resuspended in 100 μl of diluent and transferred to autosampler vials with glass inserts for injection onto the HPLC system.
Positive ion electrospray ionization (ESI) mass spectra were obtained with a MDS Sciex 3200 Q‐TRAP triple quadrupole mass spectrometer (Applied Biosystems Inc) with a turbo ionspray source interfaced to a Shimadzu HPLC system and an HTC‐PAL autosampler (Leap Technologies). Samples were chromatographed with an Agilent ZORBAX Rx/SB‐C 8 (4.6 × 75 mm) column (Agilent Technologies) protected by a C 18 guard cartridge, 4.0 mm by 2.0 mm (Phenomenex). An LC gradient was employed with mobile phase A consisting of 10 mM ammonium acetate pH 4.0 and mobile phase B consisting of acetonitrile. Chromatographic resolution was obtained by holding mobile phase B steady at 50% from 0 to 0.01 min, increasing linearly from 50% to […] from 0.01 to 3.0 min, holding steady at 99% from 3.0 to 4.5 min, decreasing linearly from 99% to 50% from 4.5 to 5.0 min, followed by equilibration at 50% from 5.0 to 6.0 min. The LC flow rate was 0.75 ml/min and the sample injection volume was 10 μl. The analysis run time was 6.0 min.
Analyst v1.5.1 software (Applied Biosystems) was used for peak area integration.
Plasma and tissue concentrations were measured at time intervals between […] and 6 h post‐drug administration. The mouse PBPK model for Mdr1a/b (−/−) mice and wild‐type mice was developed using SimBiology, MATLAB with a focus on the following tissues: plasma, brain, bone marrow, liver, gut, and kidney. The primary drivers of vinca disposition including tubulin binding, ABCB1‐mediated transport, and elimination via metabolism, biliary clearance, and glomerular filtration created the foundation of the model. Metabolism values were either derived experimentally or sourced from literature, while tissue partitioning and Michaelis–Menten parameters for ABCB1 transport and biliary excretion were optimized using plasma and tissue PK data.

[2] = system: ABCB1; assay: ABCB1‐driven transport kinetics fit to wild‐type mouse brain tissue PK data
Text: The rate of change in the amount of drug in tissues with ABCB1 expression is as follows: (3) dAT/dt=QC×CA−CVT−FABCB1,T×Vmax,ABCB1×Cv/Km+Cv In which ABCB1‐mediated efflux of drug is characterized by Michaelis–Menten saturable kinetics, where FABCB1,T is the scaling factor for the relative expression of ABCB1 transport protein in relevant tissues, Vmax,ABCB1 is the maximum velocity of ABCB1 transport out of the tissue compartment, and Km is the associated Michaelis–Menten constant. Scaling factors, FABCB1,T , were acquired from Systems Pharmacology for ABCB1 relative tissue expression as previously reported.[36]
The transfer of drugs at the BBB is unique as the mass transfer out of the vascular space surrounding the brain tissue is hindered by a permeability barrier. […] Coupling the ABCB1 transport equations as expressed above with permeability‐limited modeling equations from Choi et al.,[23] the following equations are proposed where Equation ( 4 ) describes the amount of drug within the brain tissue and Equation ( 5 ) describes the amount of drug in the vascular space surrounding the tissue: (4) VCNS*dCCNS,T/dt=PSA×CA−CCNS,V−sfABCB1,CNS×VCNS×VMAXABCB1×CCNS,V/KMABCB1+CCNS,V (5) VBB*dCBB/dt=QCNS*CA−CV−PSA×CA−CV,CNA+sfCNS×VCNS×VMAXABCB1×CCNS,V/KMABCB1+CCNS,V where VCNS is the volume of the brain tissue, VBB is the volume consisting of brain blood, CCNS,T is the concentration of drug in the brain tissue, PSA is the permeability surface area product, sfABCB1,CNS is the relative ABCB1 expression in brain tissue, and CBB is the concentration of drug in the brain blood. VCNA and VBB were set to 97% and 3% of total brain volume, respectively.[37] […] The parameter optimization method was conducted as described previously with nonlinear least squares regression. […] The corresponding Vmax,ABCB1 value was optimized to in vivo canine PK data. […] Canine model parameter values were thus fit to the patients without concurrent treatment of omeprazole to minimize the influence of potential drug–drug interactions.

[3] = system: dog liver microsomes; settings: dog and human models, fit of digitized data, cited from earlier work
[4] = system: serum proteins; settings: cited from earlier work
[5] = Canine PBPK model Monte Carlo simulation and model parameters; settings: dog model
[6] = optimized to mouse mdr1a/b (−/−) data

Structure (SMILES): CC[C@]1(O)C[C@@H]2CN(CCc3c([nH]c4ccccc34)[C@@](C(=O)OC)(c3cc4c(cc3OC)N(C)[C@H]3[C@@](O)(C(=O)OC)[C@H](OC(C)=O)[C@]5(CC)C=CCN6CC[C@]43[C@@H]65)C2)C1 [VBL, Vinblastine]
- AUC ([1]; FVB (wild-type), brain): 109 nM·h
- AUC ([1]; FVB (wild-type), gut): 3470 nM·h
- half-life ([1]; FVB (wild-type), t1/2, wild‐type mice, brain): 3.94 h
- half-life ([1]; FVB (wild-type), t1/2, wild‐type mice, gut): 1.27 h
- half-life ([1]; FVB (wild-type), t1/2, wild‐type mice, kidney): 1.56 h
- half-life ([1]; FVB (wild-type), t1/2, wild‐type mice, liver): 1.32 h
- half-life ([1]; FVB (wild-type), t1/2, wild‐type mice, serum): 1.6 h
- AUC ([1]; FVB (wild-type), kidney): 12600 nM·h
- AUC ([1]; FVB (wild-type), liver): 4210 nM·h
- AUC ([1]; FVB (wild-type), serum): 181 nM·h
- AUC ([1]; FVB, bone marrow): 2980 nM·h
- AUC ([1]; Mdr1a/b (−/−) knock-out in FVB background, bone marrow): 2710 nM·h
- half-life ([1]; Mdr1a/b (−/−) knock-out in FVB background, t1/2, Mdr1a/b (−/−) mice, bone marrow): 5.83 h
- half-life ([1]; Mdr1a/b (−/−) knock-out in FVB background, t1/2, Mdr1a/b (−/−) mice, liver): 1.8 h
- AUC ([1]; Mdr1a/b (−/−) knock-out in FVB background, liver): 4270 nM·h
- AUC ([1]; Mdr1a/b (−/−) knock-out, FVB background, brain): 1400 nM·h
- AUC ([1]; Mdr1a/b (−/−) knock-out, FVB background, gut): 5900 nM·h
- half-life ([1]; Mdr1a/b (−/−) knock-out, FVB background, t1/2, Mdr1a/b (−/−) mice, gut): 3.86 h
- half-life ([1]; Mdr1a/b (−/−) knock-out, FVB background, t1/2, Mdr1a/b (−/−) mice, kidney): 1.79 h
- half-life ([1]; Mdr1a/b (−/−) knock-out, FVB background, t1/2, Mdr1a/b (−/−) mice, serum): 1.62 h
- AUC ([1]; Mdr1a/b (−/−) knock-out, FVB background, serum): 215 nM·h
- Vmbil (biliary transport Vmax) ([2]; WT mouse, set equivalent to ABCB1 value): 928.8 nmol/L/h
- Vmax, ABCB1‐driven transport ([2]; fit to wild‐type mouse brain tissue PK data): 928.8 nM/h
- KmABCB1 ([2]; mouse, optimized parameter): 6.41 nmol/L
- VmABCB1 ([2]; mouse, optimized parameter): 928.8 nmol/L/h
- Vmmet (metabolism Vmax) ([3]; extrapolated using 55 mg protein/g liver): 189.6 µmol/L/h
- Km ([3]; read-out: Kmmet (metabolism Km)): 9.53 µM
- bound to serum proteins ([4]; dog plasma): ≤ 75%
- Protein binding (single value) ([4]; value used in dog model): 75%
- Protein binding (single value) ([4]; value used in human model): 75%
- Protein binding (single value) ([4]; value used in mouse model): 75%
- Partition coefficient PCblood [5]: 1.0
- Partition coefficient PCBM ([5]; bone marrow, optimized to mouse mdr1a/b (−/−) data): 1.0
- Partition coefficient PCCNS [5, 6]: 1.21
- Partition coefficient PCGut [5, 6]: 1.08
- Partition coefficient PCKidney [5, 6]: 3.73
- Partition coefficient PCLiver [5, 6]: 2.26
